Assay results reported in patent publication US8399422B2, “Compositions for transfection of oligonucleotides active for gene silencing and their biological and therapeutical applications” (Polyplus-Transfection, priority 2006, dated 2013).

Assays:
[1] = test system: luciferase gene (pGL3) stably expressed by A549-GL3Luc cells; experiment: Luciferase gene (pGL3) silencing by GL3Luc siRNA transfection of A549-GL3Luc cells; format: cell-based, human; details: 48 h
Protocol: A549 (human lung carcinoma, ATCC No CCL-185) cells stably expressing the GL3 luciferase (Photinus pyralis luciferase under the control of SV40 elements) were obtained after stable transfection of pGL3Luc plasmid (Clontech). A549-GL3Luc cells were grown in RPMI-1640 and supplemented with 10% fetal bovine serum, 2 mM glutamax, 100 units/ml penicillin, 100 μg/ml streptomycin and 0.8 μg/ml G418 (Promega). All the cells were maintained at 37° C. in a 5% CO2 humidified atmosphere.
One day before transfection, 2.5×10^4 cells were seeded in 24-well tissue culture plate in 1 ml fresh complete medium containing 10% FBS. Before transfection, complexes of siRNA/transfection reagent were prepared. The desired amount of siRNAs was diluted in 100 μl of serum-free medium. The solution was mixed with a Vortex for 10 seconds. Then, 0.5 μl to 3 μl of amphiphilic molecules-based formulations were added to siRNA solution. The final mixture was mixed with a Vortex for 10 seconds, and left for 10 minutes at room temperature. Then, 100 μl of complexes solution were added per well and the plates were incubated at 37° C. […]
For all transfection protocols, the plates were further incubated at 37° C. for 48 h.
Luciferase gene expression was measured using a commercial kit (Promega, France). After removing the complete medium, three washings with 1 ml of PBS solution were made. Then, 100 μl of 1× lysis buffer were added per well, and the plate was incubated at room temperature for 30 minutes. The lysates were collected and centrifuged at 14,000 g for 5 minutes. The luciferase assay was assessed with 5 μl of lysate after injection of 100 μl of luciferin solution. The luminescence (RLU) was monitored with an integration over 10 seconds with a luminometer (LB960, Berthold, France). Results are expressed as light units integrated over 10 seconds (RLU), per mg of cell protein using the BCA assay (Pierce, France).
As a target model of endogenous reporter gene, A549 cells stably expressing the GL3 luciferase were used (Photinus pyralis luciferase under the control of SV40 elements). A well defined and conventional siRNA, chemically produced, and sequence-specific GL3Luc siRNA of SEQ ID No 1 and 2 composed of a short dsRNA of 19 nucleotides matching the GL3Luc mRNA and comprising 3′-overhangs of 2 deoxyribonucleotides (dT) was used for the transfection experiments. A formulation of cationic amphiphile MONI at 1 mM and combined with neutral phospholipid DOPE at 1 mM in ethanol was prepared. SiRNA diluted in serum-free medium (100 μl) was then complexed with 2 μl of the formulation of MONI/DOPE (1 mM/1 mM in ethanol). The resulting solution of transfection complexes was added on the cells growing in medium containing serum and cells were finally exposed to siRNA concentration range from 100 to 2000 pM (FIG. 1). The silencing efficiency was determined 48 h post-transfection by measuring the luciferase activity with a standard luminescence assay normalized by the protein content of cell lysates. The luciferase activity (expressed as RLU/mg of protein) was inhibited up to 90% when the transfection was performed with 2000 pM of siRNA.
Formulations composed of amphiphilic cationic molecule/DOPE (1 mM/2 mM in 10% ethanol and water) were used to complex siRNA and transfect A549-GL3Luc cells. Luciferase gene expression was measured after 48 h incubation period. Experiments were made in triplicates and the GL3 luciferase silencing efficiency was calculated from the luciferase level of transfected cells with a control GL2-Luc siRNA and normalized by the content of protein in the cell lysates.

[2] = test system: luciferase gene (pGL3) stably expressed by A549-GL3Luc cells; experiment: Reverse transfection in 96-well plate, luciferase silencing in A549-GL3Luc cells; format: cell-based, human; details: transfected with liposomal MONI/DOPE (½ mM), 48 h
Protocol: GL3Luc siRNA diluted in 50 μl of serum free medium were complexed (in 96-well tissue culture plate format, n=6) for 5 minutes with 1 μl of formulation composed of MONI/DOPE in water (1 mM/2 mM). Then, 10,000 A549-GL3Luc cells, stably expressing the luciferase gene, in 125 μl of medium containing serum were added per well. Luciferase gene expression was measured after 48 h incubation period. As unspecific siRNA control, siRNA matching the GL2 luciferase sequence were transfected in the same conditions. Luciferase gene expression was measured after 48 h incubation period and the luciferase activity was expressed as Relative Light Unit (RLU) normalized by the content of protein in the cell lysates (mg of protein). GL3 luciferase silencing efficiency (FIG. 3B) was calculated from the endogenous luciferase level of untransfected A549-GL3Luc cells normalized by the content of protein in the cell lysates.
Complexes of siRNA/transfection reagent were prepared first. […]
Luciferase gene expression was measured using a commercial kit (Promega, France). […] The luciferase assay was assessed with 5 μl of lysate after injection of 100 μl of luciferin solution. The luminescence (RLU) was monitored with an integration over 10 seconds with a luminometer (LB960, Berthold, France). Results are expressed as light units integrated over 10 seconds (RLU), per mg of cell protein using the BCA assay (Pierce, France). […]

**Q.** What does the source list for “GL2Luc siRNA: siRNA duplex SEQ ID No 3 and 4 matching the GL2 luciferase sequence, unspecific control (chain 1 CGUACGCGGAAUACUUCGATT; chain 2 TTGCAUGCGCCUUAUGAAGCU; chemistry not fully specified; one strand is listed 3' to 5') [reference compound]”?
**A.** luciferase level with unrelated GL2Luc siRNA ([1]; transfected with MONBI 1 mM/DOPE 2 mM in ethanol, same conditions): the luciferase level was not affected; effect of unrelated GL2Luc siRNA on luciferase activity ([1]; transfected with MONI/DOPE 1 mM/1 mM in ethanol, same conditions (100 to 2000 pM)): absence of effect on the luciferase activity; luciferase inhibition with unrelated GL2Luc siRNA, reverse transfection [2]: absence of luciferase inhibition
